Values quoted from earlier work in patent publication US20070025948A1, “Dilution-type sterilizer composition” (Dainippon Sumitomo Pharma Co. Ltd, priority 2003, published 2007).
Structures can show the parent of a compound that is named as a salt. Where two headings read alike, the source gives them in different places.

Tests used:
[1] = 20° C.
[2] = hydrophilic-lipophilic balance, from new Surfactant Handbook

SMILES | solubility in water [1] | HLB [2] | also measured
[H]/N=C(\N/C(=N/[H])NCCCCCCNC(=N)NC(=N)Nc1ccc(Cl)cc1)Nc1ccc(Cl)cc1 [chlorhexidine hydrochloride] | – | – | solubility in water ([1]; hydrochloride): 0.06 w/v %
CCCCCCCCCCCCOS(=O)(=O)[O-].[Na+] [sodium lauryl sulfate] | – | ~40 | –
CCCCCCCCCCCCCCCCCC(=O)[O-].[Na+] [sodium stearate] | – | 18 | –

Continued, in another order:

solubility in water [1] | SMILES | HLB [2] | also measured
0.08 w/v % | [H]/N=C(\N/C(=N/[H])NCCCCCCNC(=N)NC(=N)Nc1ccc(Cl)cc1)Nc1ccc(Cl)cc1 [Chlorhexidine] | – | –
not less than 50 w/v % | [H]/N=C(\N/C(=N/[H])NCCCCCCNC(=N)NC(=N)Nc1ccc(Cl)cc1)Nc1ccc(Cl)cc1 [chlorhexidine gluconate] | – | –
